Laboratory results reported in patent publication US20100048462A1, “TRUNCATED PTH PEPTIDES WITH A CYCLIC CONFORMATION” (Zealand Pharma A/S, priority 2006, published 2010).
Bridge positions count the residues as written; N and C are the ends. Square brackets hold non-standard residues; d marks the D form. Peptide text beside a SMILES is read from it. hArg = N=C(N)NCCCC[C@H](N)C(=O)O; Ac6c = NC1(C(=O)O)CCCCC1; Ac5c = NC1(C(=O)O)CCCC1; Nva = CCC[C@H](N)C(=O)O; Abu = CC[C@H](N)C(=O)O; Aib = CC(C)(N)C(=O)O

Target: T1, Saos-2 PTH1R (Homo sapiens, UniProt Q03431)
T1 construct: endogenous in cells; host or cells: Saos-2
T1 sequence (Q03431 27-593): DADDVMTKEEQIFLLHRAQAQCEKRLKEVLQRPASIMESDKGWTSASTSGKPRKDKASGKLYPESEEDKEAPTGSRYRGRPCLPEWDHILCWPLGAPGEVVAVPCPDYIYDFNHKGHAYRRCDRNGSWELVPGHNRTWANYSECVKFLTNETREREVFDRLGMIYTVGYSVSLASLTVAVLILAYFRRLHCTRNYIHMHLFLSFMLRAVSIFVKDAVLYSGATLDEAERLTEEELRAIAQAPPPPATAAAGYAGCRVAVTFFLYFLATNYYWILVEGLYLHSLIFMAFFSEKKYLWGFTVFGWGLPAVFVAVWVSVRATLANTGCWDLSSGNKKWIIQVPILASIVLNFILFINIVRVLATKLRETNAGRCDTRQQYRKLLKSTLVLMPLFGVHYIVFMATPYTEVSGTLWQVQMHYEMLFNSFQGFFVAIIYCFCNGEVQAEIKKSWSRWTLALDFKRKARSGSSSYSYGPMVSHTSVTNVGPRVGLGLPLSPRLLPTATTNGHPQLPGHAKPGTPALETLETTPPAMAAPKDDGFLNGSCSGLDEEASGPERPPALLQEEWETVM
Assay: cAMP-efficacy assay in Saos-2 cells
Format: cell-based
Conditions: for EC50: cAMP, 100 μM IBMX, 37° C. 15 min, suffix of label = salt tested; for Emax ± SEM: relative effect to the control (SEQ ID NO: 32)
Method: Peptides were dissolved in phosphate buffered saline and further diluted in Tyrode's buffer (TB, Sigma-Aldrich) containing 0.1% BSA and 100 μM isobutyl-methyl-xanthine (IBMX, Sigma-Aldrich). Saos-2 cells were seeded at 50,000 cells/well in 96-microtiter plates and grown for two days before the efficacy assays. On the day of analysis, the growth medium was carefully removed by suction. Cells were washed once with 200 μl TB/0.1% BSA. The buffer was replaced with 100 μl reaction mixture (±test peptide), and incubated at 37° C. for 15 min. The reaction was stopped by addition of 25 μl of ice-cold 0.5 M HCl. Cells were in the following incubated on ice for 60 min. 75 μl acetate-buffer, pH6.2, was added to each well of a 96-well cAMP FlashPlate (Perkin-Elmer). […] FlashPlates were incubated overnight at 4° C., emptied by suction and counted in a TopCounter (Packard).
Determinations were performed in single determinations or triplicates at all doses. […] Standards were included as single determinations, duplicates or triplicates in each experiment, preferentially on each plate.
Concentration-dependent cAMP responses were imported into GraphPad Prism vers. 4 (GraphPad Software), transformed and plotted. […] Thus, a four-parameter logistic equation was used for determination of the EC50 values. Curves were fitted with a function for sigmoidal dose response curve (variable slope) non-linear fit Y=Bottom+(Top-Bottom)/(1+10̂((LogEC50−X)*HillSlope)) where X is the logarithm of concentration and Y is the response. Y starts at Bottom and goes to Top with a sigmoid shape. pEC50, Hill-coefficient and the maximally inducible concentration of cAMP (Emax) were evaluated.
Overall statistical differences were analyzed with Statistica (Statsoft) using one-way ANOVA. Post-hoc comparisons were made by the use of Fisher's Least Significance Test. Results were considered significant, when p was lower than 0.05.

## CC[C@H](C)[C@H](NC(=O)[C@H](CCC(=O)O)NC(=O)C(C)(C)NC(=O)[C@@H](NC(=O)C1(N)CCCC1)C(C)C)C(=O)N[C@@H](CCC(N)=O)C(=O)N[C@@H](CC(C)C)C(=O)N[C@@H](CCSC)C(=O)N[C@@H](Cc1c[nH]cn1)C(=O)N[C@@H](CCC(N)=O)C(=O)N[C@@H](CCCCNC(=N)N)C(=O)N[C@@H](C)C(=O)N[C@H]1CCCCNC(=O)C[C@@H](C(N)=O)NC(=O)[C@H](CC(N)=O)NC(=O)[C@H](CC(C)C)NC(=O)[C@H](Cc2c[nH]c3ccccc23)NC1=O [2A, H-Ac5c-Val-Aib-Glu-Ile-Gln-Leu-Met-His-Gln-Har-Ala-Lys( )Trp-Leu-Asn-Asp( )-NH2] (H-[Ac5c]V[Aib]EIQLMHQ[hArg]AKWLND-NH2; lactam 13-17)
  EC50: 6.31 nM
  Emax ± SEM: 0.99 ± 0.03

## CC[C@H](C)[C@H](NC(=O)[C@H](CCC(=O)O)NC(=O)C(C)(C)NC(=O)[C@@H](NC(=O)C1(N)CCCC1)C(C)C)C(=O)N[C@@H](CCC(N)=O)C(=O)N[C@@H](CC(C)C)C(=O)N[C@@H](CCSC)C(=O)N[C@@H](Cc1c[nH]cn1)C(=O)N[C@@H](CCC(N)=O)C(=O)N[C@@H](CCCCNC(=N)N)C(=O)N[C@@H](C)C(=O)N[C@H]1CCCCNC(=O)C[C@@H](C(N)=O)NC(=O)[C@H](CC(N)=O)NC(=O)[C@H](CC(C)C)NC(=O)[C@H](Cc2c[nH]c3ccccc23)NC1=O [2C, H-Ac5c-Val-Aib-Glu-Ile-Gln-Leu-Met-His-Gln-Har-Ala-Lys( )Trp-Leu-Asn-Asp( )-NH2] (H-[Ac5c]V[Aib]EIQLMHQ[hArg]AKWLND-NH2; lactam 13-17)
  EC50: 6.61 nM
  Emax ± SEM: 0.94 ± 0.03

## CC[C@H](C)[C@H](NC(=O)[C@H](CCC(=O)O)NC(=O)C(C)(C)NC(=O)[C@@H](NC(=O)C1(N)CCCC1)C(C)C)C(=O)N[C@@H](CCC(N)=O)C(=O)N[C@@H](CC(C)C)C(=O)N[C@@H](CCSC)C(=O)N[C@@H](Cc1c[nH]cn1)C(=O)N[C@@H](CCC(N)=O)C(=O)N[C@@H](CCCCNC(=N)N)C(=O)N[C@@H](C)C(=O)N[C@H]1CCCCNC(=O)C[C@@H](C(N)=O)NC(=O)[C@H](CC(N)=O)NC(=O)[C@H](CC(C)C)NC(=O)[C@H](Cc2c[nH]c3ccccc23)NC1=O [2T, H-Ac5c-Val-Aib-Glu-Ile-Gln-Leu-Met-His-Gln-Har-Ala-Lys( )Trp-Leu-Asn-Asp( )-NH2] (H-[Ac5c]V[Aib]EIQLMHQ[hArg]AKWLND-NH2; lactam 13-17)
  EC50: 6.61 nM
  Emax ± SEM: 0.70 ± 0.09

## CC[C@H](C)[C@H](NC(=O)[C@H](CCC(=O)O)NC(=O)C(C)(C)NC(=O)[C@@H](NC(=O)C1(N)CCCC1)C(C)C)C(=O)N[C@@H](CCC(N)=O)C(=O)N[C@@H](CC(C)C)C(=O)N[C@@H](CC(C)C)C(=O)N[C@@H](Cc1c[nH]cn1)C(=O)N[C@@H](CCC(N)=O)C(=O)N[C@@H](CCCCNC(=N)N)C(=O)N[C@@H](C)C(=O)N[C@H]1CCCCNC(=O)C[C@@H](C(=O)O)NC(=O)[C@H](CC(N)=O)NC(=O)[C@H](CC(C)C)NC(=O)[C@H](Cc2c[nH]c3ccccc23)NC1=O [SEQ ID NO: 5, H-Ac5c-Val-Aib-Glu-Ile-Gln-Leu-Leu-His-Gln-Har-Ala-Lys( )-Trp-Leu-Asn-Asp( )-OH] (H-[Ac5c]V[Aib]EIQLLHQ[hArg]AKWLND-OH; lactam 13-17)
  EC50: 72.4 nM
  Emax ± SEM: 1.16 ± 0.12

## CC[C@H](C)[C@H](NC(=O)[C@H](CCC(=O)O)NC(=O)C(C)(C)NC(=O)[C@@H](NC(=O)C1(N)CCCC1)C(C)C)C(=O)N[C@@H](CCC(N)=O)C(=O)N[C@@H](CC(C)C)C(=O)N[C@@H](CCSC)C(=O)N[C@@H](Cc1c[nH]cn1)C(=O)N[C@@H](CCC(N)=O)C(=O)N[C@@H](CCCCNC(=N)N)C(=O)N[C@@H](C)C(=O)N[C@H]1CC(=O)NCCCC[C@@H](C(N)=O)NC(=O)[C@H](CC(N)=O)NC(=O)[C@H](CC(C)C)NC(=O)[C@H](Cc2c[nH]c3ccccc23)NC1=O [SEQ ID NO: 6, H-Ac5c-Val-Aib-Glu-Ile-Gln-Leu-Met-His-Gln-Har-Ala-Asp( )-Trp-Leu-Asn-Lys( )-NH2] (H-[Ac5c]V[Aib]EIQLMHQ[hArg]ADWLNK-NH2; lactam 13-17)
  EC50: 126 nM
  Emax ± SEM: 1.5

## CC[C@H](C)[C@H](NC(=O)[C@H](CCC(=O)O)NC(=O)C(C)(C)NC(=O)[C@@H](NC(=O)C1(N)CCCCC1)C(C)C)C(=O)N[C@@H](CCC(N)=O)C(=O)N[C@@H](CC(C)C)C(=O)N[C@@H](CC(C)C)C(=O)N[C@@H](Cc1c[nH]cn1)C(=O)N[C@@H](CCC(N)=O)C(=O)N[C@@H](CCCCNC(=N)N)C(=O)N[C@@H](C)C(=O)N[C@H]1CCCCNC(=O)C[C@@H](C(N)=O)NC(=O)[C@H](CC(N)=O)NC(=O)[C@H](CC(C)C)NC(=O)[C@H](Cc2c[nH]c3ccccc23)NC1=O [SEQ ID NO: 10, H-Ac6c-Val-Aib-Glu-Ile-Gln-Leu-Leu-His-Gln-Har-Ala-Lys( )-Trp-Leu-Asn-Asp( )-NH2] (H-[Ac6c]V[Aib]EIQLLHQ[hArg]AKWLND-NH2; lactam 13-17)
  EC50: 12.6 nM
  Emax ± SEM: 1.08 ± 0.06

## CC[C@H](N)C(=O)N[C@H](C(=O)NC(C)(C)C(=O)N[C@@H](CCC(=O)O)C(=O)N[C@H](C(=O)N[C@@H](CCC(N)=O)C(=O)N[C@@H](CC(C)C)C(=O)N[C@@H](CC(C)C)C(=O)N[C@@H](Cc1c[nH]cn1)C(=O)N[C@@H](CCC(N)=O)C(=O)N[C@@H](CCCCNC(=N)N)C(=O)N[C@@H](C)C(=O)N[C@H]1CCCCNC(=O)C[C@@H](C(N)=O)NC(=O)[C@H](CC(N)=O)NC(=O)[C@H](CC(C)C)NC(=O)[C@H](Cc2c[nH]c3ccccc23)NC1=O)[C@@H](C)CC)C(C)C [SEQ ID NO: 11, H-Abu-Val-Aib-Glu-Ile-Gln-Leu-Leu-His-Gln-Har-Ala-Lys( )-Trp-Leu-Asn-Asp( )-NH2] (H-[Abu]V[Aib]EIQLLHQ[hArg]AKWLND-NH2; lactam 13-17)
  EC50: 67.6 nM
  Emax ± SEM: 1.04 ± 0.05

## CCC[C@H](N)C(=O)N[C@H](C(=O)NC(C)(C)C(=O)N[C@@H](CCC(=O)O)C(=O)N[C@H](C(=O)N[C@@H](CCC(N)=O)C(=O)N[C@@H](CC(C)C)C(=O)N[C@@H](CC(C)C)C(=O)N[C@@H](Cc1c[nH]cn1)C(=O)N[C@@H](CCC(N)=O)C(=O)N[C@@H](CCCCNC(=N)N)C(=O)N[C@@H](C)C(=O)N[C@H]1CCCCNC(=O)C[C@@H](C(N)=O)NC(=O)[C@H](CC(N)=O)NC(=O)[C@H](CC(C)C)NC(=O)[C@H](Cc2c[nH]c3ccccc23)NC1=O)[C@@H](C)CC)C(C)C [SEQ ID NO: 12, H-Nva-Val-Aib-Glu-Ile-Gln-Leu-Leu-His-Gln-Har-Ala-Lys( )-Trp-Leu-Asn-Asp( )-NH2] (H-[Nva]V[Aib]EIQLLHQ[hArg]AKWLND-NH2; lactam 13-17)
  EC50: 102 nM
  Emax ± SEM: 1.04 ± 0.03

## CC[C@H](C)[C@H](NC(=O)[C@H](CCC(=O)O)NC(=O)C1(NC(=O)[C@@H](NC(=O)C(C)(C)N)C(C)C)CCCC1)C(=O)N[C@@H](CCC(N)=O)C(=O)N[C@@H](CC(C)C)C(=O)N[C@@H](CC(C)C)C(=O)N[C@@H](Cc1c[nH]cn1)C(=O)N[C@@H](CCC(N)=O)C(=O)N[C@@H](CCCCNC(=N)N)C(=O)N[C@@H](C)C(=O)N[C@H]1CCCCNC(=O)C[C@@H](C(N)=O)NC(=O)[C@H](CC(N)=O)NC(=O)[C@H](CC(C)C)NC(=O)[C@H](Cc2c[nH]c3ccccc23)NC1=O [SEQ ID NO: 13, H-Aib-Val-Ac5c-Glu-Ile-Gln-Leu-Leu-His-Gln-Har-Ala-Lys( )-Trp-Leu-Asn-Asp( )-NH2] (H-[Aib]V[Ac5c]EIQLLHQ[hArg]AKWLND-NH2; lactam 13-17)
  EC50: 53.7 nM
  Emax ± SEM: 0.96 ± 0.03
